Measurements reported in PubChem BioAssay (NCI).
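Method: 48-hour compound exposure of cells in 96-well plates, five concentrations, linear interpolation of endpoints. The concentration for 50% growth inhibition is given as GI50. TGI: concentration producing complete growth inhibition.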

What was measured:
Experiment in all cases: growth of human tumour cells (NCI), 48 h
[1] = tested on: MALME-3M melanoma
[2] = tested on: CCRF-CEM leukemia
[3] = tested on: HT29 colon
[4] = tested on: HOP-92 NSCLC
[5] = tested on: OVCAR-8 ovarian
[6] = tested on: HOP-62 NSCLC
[7] = tested on: NCI-H23 lung
[8] = tested on: SNB-75 CNS
[9] = tested on: HCC-2998 colon
[10] = tested on: SK-MEL-5 melanoma
[11] = tested on: K-562 leukemia
[12] = tested on: SF-539 CNS
[13] = tested on: KM12 colon
[14] = tested on: HS 578T breast
[15] = tested on: U251 CNS
[16] = tested on: SK-MEL-28 melanoma
[17] = tested on: SNB-19 CNS
[18] = tested on: SW-620 colon
[19] = tested on: T-47D breast
[20] = tested on: NCI-H460 lung
[21] = tested on: IGROV1 ovarian
[22] = tested on: A498 renal
[23] = tested on: COLO 205 colon
[24] = tested on: HL-60(TB) leukemia
[25] = tested on: UO-31 renal
[26] = tested on: SK-MEL-2 melanoma
[27] = tested on: HCT-116 colon
[28] = tested on: SN12C renal
[29] = tested on: CAKI-1 renal
[30] = tested on: RPMI-8226 leukemia
[31] = tested on: MDA-MB-231 breast
[32] = tested on: SF-295 CNS
[33] = tested on: MDA-MB-435
[34] = tested on: 786-0 renal
[35] = tested on: TK-10 renal
[36] = tested on: EKVX NSCLC
[37] = tested on: SF-268 CNS
[38] = tested on: NCI/ADR-RES ovarian
[39] = tested on: NCI-H522 lung
[40] = tested on: HCT-15 colon
[41] = tested on: NCI-H226 lung
[42] = tested on: OVCAR-4 ovarian
[43] = tested on: SR leukemia
[44] = tested on: LOX IMVI melanoma
[45] = tested on: UACC-257 melanoma
[46] = tested on: MOLT-4 leukemia
[47] = tested on: MCF7 breast
[48] = tested on: M14 melanoma
[49] = tested on: DU-145 prostate
[50] = tested on: OVCAR-3 ovarian
[51] = tested on: RXF 393 renal
[52] = tested on: OVCAR-5 ovarian
[53] = tested on: A549 NSCLC
[54] = tested on: ACHN renal
[55] = tested on: SK-OV-3 ovarian
[56] = tested on: BT-549 breast
[57] = tested on: UACC-62 melanoma
[58] = tested on: PC-3 prostate

## CCCC(=O)O[C@]1(C)CC[C@@H]2[C@H]3[C@@H]1[C@@H]1C[C@@](C)(O)[C@H](OC)CC[C@](C)(OC(=O)[C@@H]2C)[C@H]3O1
[1]
  GI50: 17.8 µM
  TGI: 33.8 µM
[2]
  GI50: 2.35 µM
  TGI: 13.9 µM
[3]
  GI50: 26.9 µM
  TGI: 69.7 µM
[4]
  GI50: 17.6 µM
  TGI: 31.4 µM
[5]
  GI50: 39.1 µM
  TGI: > 100 µM
[6]
  GI50: 82.7 µM
  TGI: > 100 µM
[7]
  GI50: 96.1 µM
  TGI: > 100 µM
[8]
  GI50: 16.3 µM
  TGI: 39.2 µM
[9]
  GI50: 17.5 µM
  TGI: 31.2 µM
[10]
  GI50: 34.9 µM
  TGI: > 100 µM
[11]
  GI50: 14.4 µM
  TGI: 27.5 µM
[12]
  GI50: 71.7 µM
  TGI: > 100 µM
[13]
  GI50: 19.4 µM
  TGI: 44.7 µM
[14]
  GI50: 28.8 µM
  TGI: 72.7 µM
[15]
  GI50: 56.9 µM
  TGI: > 100 µM
[16]
  GI50: 19.9 µM
  TGI: 35 µM
[17]
  GI50: 32.1 µM
  TGI: > 100 µM
[18]
  GI50: 34.4 µM
  TGI: > 100 µM
[19]
  GI50: 21.6 µM
  TGI: 44.5 µM
[20]
  GI50: 56.3 µM
  TGI: > 100 µM
[21]
  GI50: 24.9 µM
  TGI: 62 µM
[22]
  GI50: 35.4 µM
  TGI: > 100 µM
[23]
  GI50: 33.7 µM
  TGI: > 100 µM
[24]
  GI50: 21.2 µM
  TGI: 45.1 µM
[25]
  GI50: 40.4 µM
  TGI: > 100 µM
[26]
  GI50: 65.7 µM
  TGI: > 100 µM
[27]
  GI50: 36.5 µM
  TGI: > 100 µM
[28]
  GI50: 24.8 µM
  TGI: 59.5 µM
[29]
  GI50: 18.6 µM
  TGI: 39.8 µM
[30]
  GI50: 13.8 µM
  TGI: 26.8 µM
[31]
  GI50: 28.9 µM
  TGI: 77.6 µM
[32]
  GI50: 30 µM
  TGI: > 100 µM
[33]
  GI50: 34.3 µM
  TGI: > 100 µM
[34]
  GI50: > 100 µM
  TGI: > 100 µM
[35]
  GI50: 28.8 µM
  TGI: 87.4 µM
[36]
  GI50: 47.3 µM
  TGI: > 100 µM
[37]
  GI50: 38.6 µM
  TGI: > 100 µM
[38]
  GI50: 67.1 µM
  TGI: > 100 µM
[39]
  GI50: 32 µM
  TGI: > 100 µM
[40]
  GI50: 47 µM
  TGI: > 100 µM
[41]
  GI50: 55 µM
  TGI: > 100 µM
[42]
  GI50: 22.1 µM
  TGI: 50 µM
[43]
  GI50: 14.9 µM
  TGI: 28.1 µM
[44]
  GI50: 66.9 µM
  TGI: > 100 µM
[45]
  GI50: 24.5 µM
  TGI: 60.7 µM
[46]
  GI50: 23.5 µM
  TGI: 52 µM
[47]
  GI50: 18.5 µM
  TGI: 33.7 µM
[48]
  GI50: 28.9 µM
  TGI: > 100 µM
[49]
  GI50: 43.4 µM
  TGI: > 100 µM
[50]
  GI50: 16.9 µM
  TGI: 40 µM
[51]
  GI50: 23.2 µM
  TGI: 72.9 µM
[52]
  GI50: 58.9 µM
  TGI: > 100 µM
[53]
  GI50: 40.6 µM
  TGI: > 100 µM
[54]
  GI50: 35.8 µM
  TGI: > 100 µM
[55]
  GI50: 31 µM
  TGI: 97.1 µM
[56]
  GI50: 40.3 µM
  TGI: > 100 µM

## O=C1Nc2ccccc2/C1=C\c1c(Cl)n(-c2ccccc2)c2ccccc12
[1]
  TGI: 10.4 µM
[2]
  TGI: > 100 µM
[3]
  TGI: 6.46 µM
[4]
  TGI: 7.63 µM
[5]
  TGI: 40.8 µM
[6]
  TGI: 20.6 µM
[7]
  TGI: 14 µM
[8]
  TGI: 7.03 µM
[57]
  TGI: 66.7 µM
[9]
  TGI: 9.83 µM
[10]
  TGI: 17.5 µM
[11]
  TGI: > 100 µM
[12]
  TGI: 18.4 µM
[13]
  TGI: 14 µM
[14]
  TGI: 5.71 µM
[15]
  TGI: 18.2 µM
[16]
  TGI: > 100 µM
[17]
  TGI: 13.3 µM
[18]
  TGI: > 100 µM
[19]
  TGI: 56.7 µM
[20]
  TGI: 21.7 µM
[21]
  TGI: 9.64 µM
[22]
  TGI: 22.2 µM
[23]
  TGI: 4.13 µM
[24]
  TGI: > 100 µM
[25]
  TGI: 16 µM
[26]
  TGI: 36.3 µM
[27]
  TGI: 6.26 µM
[28]
  TGI: 14.6 µM
[29]
  TGI: 21.9 µM
[30]
  TGI: > 100 µM
[31]
  TGI: 13.7 µM
[32]
  TGI: 15.6 µM
[34]
  TGI: 7.71 µM
[35]
  TGI: 27 µM
[36]
  TGI: 7.7 µM
[37]
  TGI: 6.45 µM
[38]
  TGI: 8.67 µM
[40]
  TGI: 18.1 µM
[41]
  TGI: 12.2 µM
[58]
  TGI: 60.3 µM
[42]
  TGI: 21.6 µM
[43]
  TGI: > 100 µM
[44]
  TGI: 17.8 µM
[45]
  TGI: 36.5 µM
[46]
  TGI: > 100 µM
[47]
  TGI: 88 µM
[48]
  TGI: 10.1 µM
[49]
  TGI: 8.91 µM
[50]
  TGI: 4.86 µM
[51]
  TGI: 10.9 µM
[52]
  TGI: 12.9 µM
[53]
  TGI: 25 µM
[54]
  TGI: 29.7 µM
[55]
  TGI: 24 µM
[56]
  TGI: 29.8 µM

## COc1cccc(-c2cc(C(=O)Nc3ccc(/C=C/c4ccc(OC5CCN(C)CC5)cc4)cc3)ccc2OC)c1
[2]
  GI50: 1.93 µM
  TGI: 5.14 µM
[5]
  GI50: 1.96 µM
  TGI: 4.59 µM
[9]
  GI50: 1.83 µM
  TGI: 3.32 µM
[19]
  GI50: 1.7 µM
  TGI: 4.98 µM
[22]
  GI50: 1.39 µM
  TGI: 3.8 µM
[29]
  GI50: 10.6 µM
  TGI: 45.6 µM
[30]
  GI50: 2.18 µM
  TGI: 5.15 µM
[41]
  GI50: 2.07 µM
  TGI: 5.04 µM
[55]
  GI50: 2.1 µM
  TGI: 5.13 µM
